Like-named read-outs stand apart in the source and are kept apart here.
How the values were obtained:
[1] = target: T1, BuChE (equine serum) (Equus caballus, UniProt P81908); assay: BuChE inhibition, modified Ellman's method; format: biochemical; conditions: for inhibition at 100 µM / BuChE (%) percentage of inhibition: mean ± SD (n = 5); for IC50: n = 3 per concentration
T1 construct: 20 μL of AChE (electric eel) or BuChE (equine serum) in phosphate solution (2.3 U/mL); from tissue; host or cells: equine serum
Experimental: (§1) The in vitro testing of ChEs inhibition was performed according to the modified Ellman’s method. […] The percentage of inhibition activity was defined for all compounds.
(§2) The in vitro testing of ChEs inhibition was performed on 96-well microplate reader, Synergy^TM HT, BioTek, Vinnoski, USA.
(§3) The method originally developed by Ellman was used with slight modifications. The measurement of AChE and BuChE inhibitory activity was performed in a 96-well microplate reader. 170 μL of 0.1 M phosphate buffer (pH 7.0), 20 μL of AChE (electric eel) or BuChE (equine serum) in phosphate solution (2.3 U/mL), 20 μL of the tested compound in methanol and 20 μL of 10 mM (5,5′-dithiobis(2-nitrobenzoic acid), DTNB, Ellman’s Reagent) were mixed and incubated at 37 °C for 15 min.
Then 20 μL of 7.5 mM acetylthiocholine iodide (ATCI)/butyrylthiocholine iodide (BTCI) were added. […] […] There was prepared one set of mixtures as a control (Abscontrol), which contained an equal volume of methanol instead of the tested samples.
(§4) The percentage ability to inhibit AChE and BuChE at the concentration 100 µM was tested for all compounds. The inhibitory rates IR (%) were calculated according to the Equation (1). IR = [1 - (Abssample/Abscontrol)] × 100(1)
The values were calculated by non-linear regression of the concentration-response curve using GraphPad Prism 5.0 software, according to the Equation (2):Y = Ymin + (Ymax − Ymin)/(1 + [(X^HillSlope)/(IC50^HillSlope)])(2)

[2] = target: AChE (electric eel) (Electrophorus electricus, UniProt O42275); assay: biochemical; conditions: for inhibition at 100 µM: read-out: AChE (%) percentage of inhibition
Experimental: as §1, §2, §3
Then 20 μL of 7.5 mM acetylthiocholine iodide (ATCI)/butyrylthiocholine iodide (BTCI) were added. […] Each measurement was repeated five times (n = 5). There was prepared one set of mixtures as a control (Abscontrol), which contained an equal volume of methanol instead of the tested samples.
as §4

[3] = at 100 µM, read-out: BuChE (%) percentage of inhibition
[4] = read-out: BuChE (%) percentage of inhibition, at 100 µM

T1 sequence (P81908 whole entry): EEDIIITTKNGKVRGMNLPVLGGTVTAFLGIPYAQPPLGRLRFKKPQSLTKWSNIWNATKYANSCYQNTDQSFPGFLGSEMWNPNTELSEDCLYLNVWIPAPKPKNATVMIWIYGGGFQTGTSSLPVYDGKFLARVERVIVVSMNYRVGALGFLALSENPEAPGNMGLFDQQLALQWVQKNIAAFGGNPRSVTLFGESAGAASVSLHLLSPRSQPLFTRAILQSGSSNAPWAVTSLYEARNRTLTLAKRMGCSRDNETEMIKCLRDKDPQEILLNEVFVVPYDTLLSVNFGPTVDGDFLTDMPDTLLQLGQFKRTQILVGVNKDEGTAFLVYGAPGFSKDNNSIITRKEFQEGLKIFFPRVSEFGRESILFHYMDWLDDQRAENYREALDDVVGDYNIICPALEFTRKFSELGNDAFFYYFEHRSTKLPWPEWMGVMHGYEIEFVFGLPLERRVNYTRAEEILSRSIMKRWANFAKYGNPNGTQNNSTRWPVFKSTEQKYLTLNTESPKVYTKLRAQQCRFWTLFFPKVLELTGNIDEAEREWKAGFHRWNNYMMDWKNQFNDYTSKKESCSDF
Sequence of AChE (electric eel) (O42275 24-633): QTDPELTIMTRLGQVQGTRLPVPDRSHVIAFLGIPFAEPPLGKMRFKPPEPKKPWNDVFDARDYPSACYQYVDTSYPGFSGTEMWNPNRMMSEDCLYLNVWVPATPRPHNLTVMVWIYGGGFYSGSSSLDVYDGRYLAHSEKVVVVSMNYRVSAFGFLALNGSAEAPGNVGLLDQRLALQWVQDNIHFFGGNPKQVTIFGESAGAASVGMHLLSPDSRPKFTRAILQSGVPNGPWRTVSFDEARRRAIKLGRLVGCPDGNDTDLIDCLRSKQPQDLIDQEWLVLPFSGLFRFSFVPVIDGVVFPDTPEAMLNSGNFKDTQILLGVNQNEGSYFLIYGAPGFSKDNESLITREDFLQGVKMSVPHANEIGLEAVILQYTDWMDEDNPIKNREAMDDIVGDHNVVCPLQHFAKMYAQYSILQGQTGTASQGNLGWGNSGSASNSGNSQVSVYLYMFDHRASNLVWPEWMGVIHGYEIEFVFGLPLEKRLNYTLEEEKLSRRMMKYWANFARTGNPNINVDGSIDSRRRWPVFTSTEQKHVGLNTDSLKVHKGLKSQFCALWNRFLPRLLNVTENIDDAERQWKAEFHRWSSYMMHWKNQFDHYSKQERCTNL

SMILES	inhibition at 100 µM [1, 3]	IC50 [1]	IC50 [2]	inhibition at 100 µM ([2]; at 100 µM, mean ± SD (n = 5))	AChE (%) percentage of inhibition ([2]; at 100 µM, mean ± SD (n = 5))	BuChE (%) percentage of inhibition ([1]; at 100 µM)	inhibition at 100 µM [1, 4]	inhibition at 100 µM [2]
CCOC(=O)Nc1ccc(C(=O)CCN2CCOCC2)cc1 [Compound 4, 4-(3-{4-[(ethoxycarbonyl)amino]phenyl}-3-oxopropyl)morpholin-4-ium chloride]	17.8 ± 3.4%	> 100 µM	> 100 µM	16.1 ± 4.2%				
CCCCN(C)CCC(=O)c1ccc(NC(=O)OCC)cc1 [Compound 8, Butyl(3-{4-[(ethoxycarbonyl)amino]phenyl}-3-oxopropyl)methylazanium chloride]	4.7 ± 3%	> 100 µM	> 100 µM	23.5 ± 2.2%				
CCCCN(C)CCC(=O)c1ccc(NC(=O)OCCC)cc1 [Compound 9, Butyl(methyl)(3-oxo-3-{4-[(propoxycarbonyl)amino]phenyl}propyl)azanium chloride]	29 ± 2.9%	> 100 µM	> 100 µM	44.5 ± 1.1%				
CCCN(C)CCC(=O)c1ccc(NC(=O)OC)cc1 [Compound 14, (3-{4-[(methoxycarbonyl)amino]phenyl}-3-oxopropyl)(methyl)propylazanium chloride]	22.3 ± 4.6%	> 100 µM	> 100 µM	42.2 ± 1.3%				
COC(=O)Nc1ccc(C(=O)CCN2CCCCC2)cc1 [Compound 1, 1-(3-{4-[(methoxycarbonyl)amino]phenyl}-3-oxopropyl)piperidin-1-ium chloride]	10 ± 0.8%	> 100 µM	12.7 µM	74.1 ± 0.9%				
CCCCCN(C)CCC(=O)c1ccc(NC(=O)OCC)cc1.Cl [Compound 16, (3-{4-[(ethoxycarbonyl)amino]phenyl}-3-oxopropyl)(methyl)pentylazanium chloride]	46.3 ± 2%	> 100 µM	> 100 µM	> 50%	50.6 ± 1.8%			
CCCCOC(=O)Nc1ccc(C(=O)CCN(CC)CCCC)cc1 [Compound 13, (3-{4-[(butoxycarbonyl)amino]phenyl}-3-oxopropyl)(butyl)ethylazanium chloride]	48.7 ± 2.6%	> 100 µM	> 100 µM	33.5 ± 3.4%				
CCCCN(CC)CCC(=O)c1ccc(NC(=O)OC)cc1 [Compound 10, Butyl(ethyl)(3-{4-[(methoxycarbonyl)amino]phenyl}-3-oxopropyl)azanium chloride]	43.6 ± 3%	> 100 µM	> 100 µM	23.6 ± 2.3%				
CCCCN(CC)CCC(=O)c1ccc(NC(=O)OCC)cc1.Cl [Compound 11, Butyl(3-{4-[(ethoxycarbonyl)amino]phenyl}-3-oxopropyl)ethylazanium chloride]				24.6 ± 1.9%		51.0 ± 2.9%	> 50%	
CCN(C)C(=O)Oc1cccc([C@H](C)N(C)C)c1 [Rivastigmine, reference compound]	72.9 ± 1.5%							54.8 ± 4.4%
CCCCN(C)CCC(=O)c1ccc(NC(=O)OC)cc1 [Compound 7, Butyl(3-{4-[(methoxycarbonyl)amino]phenyl}-3-oxopropyl)methylazanium chloride]	20.4 ± 5.8%	> 100 µM	> 100 µM	38 ± 4.2%				
COc1ccc2c3c1O[C@H]1C[C@@H](O)C=C[C@@]31CCN(C)C2 [Galantamine, reference compound]	62.1 ± 1.4%							
CCCOC(=O)Nc1ccc(C(=O)CCN2CCOCC2)cc1 [Compound 5, 4-(3-oxo-3-{4-[(propoxycarbonyl)amino]phenyl}propyl)morpholin-4-ium chloride]	14.4 ± 2.4%	> 100 µM	> 100 µM	25.9 ± 3.2%				
CCCOC(=O)Nc1ccc(C(=O)CCN2CCCCC2)cc1 [Compound 3, 1-(3-oxo-3-{4-[(propoxycarbonyl)amino]phenyl}propyl)piperidin-1-ium chloride]	21 ± 2.5%	> 100 µM	6.57 µM	79.4 ± 0.3%				
CCOC(=O)Nc1ccc(C(=O)CCN2CCCCC2)cc1 [Compound 2, 1-(3-{4-[(ethoxycarbonyl)amino]phenyl}-3-oxopropyl)piperidin-1-ium chloride]	15.7 ± 1.9%	> 100 µM	8.58 µM	77.8 ± 0.4%				
CCCCN(CC)CCC(=O)c1ccc(NC(=O)OCCC)cc1.Cl [Compound 12, Butyl(ethyl)(3-{4-[(propoxycarbonyl)amino]phenyl}-3-oxopropyl)azanium chloride]		> 100 µM	> 100 µM	38.4 ± 1.3%		51.1 ± 3.3%	> 50%	
CCOC(=O)Nc1ccc(C(=O)CCN(CC)CC)cc1 [Compound 6, (3-{4-[(ethoxycarbonyl)amino]phenyl}-3-oxopropyl)diethylazanium chloride]	34.2 ± 2.6%	> 100 µM	> 100 µM	42.2 ± 4.3%				
CCCN(C)CCC(=O)c1ccc(NC(=O)OCC)cc1 [Compound 15, (3-{4-[(ethoxycarbonyl)amino]phenyl}-3-oxopropyl)(methyl)propylazanium chloride]	36.8 ± 2.1%	> 100 µM	> 100 µM	45.3 ± 3.4%				

From publication PMC7180927, “Arylaminopropanone Derivatives as Potential Cholinesterase Inhibitors: Synthesis, Docking Study and Biological Evaluation” (Molecules, 2020)
